Activity calls are given as the source filed them. The rule behind the calls is not given here.
Experiments:
[1] = test system: Monoclonal antibody (mAb); test: Binding affinity against murine monoclonal antibody (mAb)-40-50
[2] = test system: Monoclonal antibody (mAb); test: Binding affinity against human monoclonal antibody (mAb)-11E6
[3] = test system: Monoclonal antibody (mAb); test: Binding affinity against human monoclonal antibody (mAb)-1B3
[4] = test system: Monoclonal antibody (mAb); test: Binding affinity against human monoclonal antibody (mAb)-5C2
[5] = test system: Monoclonal antibody (mAb); test: Binding affinity against human monoclonal antibody (mAb)-7F2

Row | SMILES | Relative Ki [1] | IC50 ratio [2] | IC50 ratio [3] | IC50 ratio [4] | IC50 ratio [5]
1 | CO[C@H]1[C@@H](O)[C@@H](C)O[C@@H](O[C@H]2CC[C@@]3(C)[C@H](CC[C@@H]4[C@@H]3CC[C@]3(C)[C@@H](C5=CC(=O)OC5)C(O)C[C@]43O)C2)[C@@H]1O (some centres not stated) | 35 |  |  |  | 
2 | CC(=O)O[C@H]1C[C@]2(O)[C@@H]3CC[C@@H]4C[C@@H](O)CC[C@]4(C)[C@H]3CC[C@]2(C)[C@H]1C1=CC(=O)OC1 | 8600 |  |  |  | 
3 | CC(=O)O[C@H]1C[C@H](O[C@H]2[C@@H](O)C[C@H](O[C@H]3[C@@H](O)C[C@H](O[C@H]4CC[C@@]5(C)[C@H](CC[C@@H]6[C@@H]5C[C@@H](O)[C@]5(C)[C@@H](C7=CC(=O)OC7)CC[C@]65O)C4)O[C@@H]3C)O[C@@H]2C)O[C@H](C)[C@H]1O[C@@H]1O[C@H](CO)[C@@H](O)[C@H](O)[C@H]1O |  | 1.6 | 1.6 | 1.1 | 1.4
4 | C[C@H]1O[C@@H](O[C@@H]2CC[C@@]3(O)CC[C@@H]4[C@H](CC[C@]5(C)[C@@H](C6=CC(=O)OC6)CC[C@]45O)[C@@]3(C=O)C2)C[C@H](O)[C@@H]1O |  | 2500 | 6200 | 3000 | 2100
5 | C[C@]12C=CC(=O)C=C1CC[C@@H]1[C@@H]2[C@@H](O)C[C@@]2(C)[C@H]1CC[C@]2(O)C(=O)COC(=O)CCC(=O)O |  |  | 160000 |  | 3400
6 | CC(=O)O[C@H]1C[C@]2(O)[C@@H]3CC[C@@H]4C[C@@H](O[C@H]5C[C@H](O)[C@H](O)[C@@H](C)O5)CC[C@]4(C)[C@H]3CC[C@]2(C)[C@H]1C1=CC(=O)OC1 | 4 |  |  |  | 
7 | C[C@]12CC[C@@H](O)C[C@H]1CC[C@@H]1[C@@H]2C[C@@H](O)[C@]2(C)[C@@H](C3=CC(=O)OC3)CCC12O (some centres not stated) | 12 |  |  |  | 
8 | C[C@H]1O[C@@H](O[C@H]2[C@@H](O)C[C@H](O[C@H]3CC[C@@]4(C)[C@H](CC[C@@H]5[C@@H]4CC[C@]4(C)[C@@H](C6=CC(=O)OC6)CC[C@]54O)C3)O[C@@H]2C)C[C@H](O)[C@@H]1O |  | 11 | 4.9 | 14 | 14
9 | CC(=O)O[C@H]1[C@H]2O[C@]23[C@@H]2CC[C@@H]4C[C@@H](O)CC[C@]4(C)[C@H]2CC[C@]3(C)[C@H]1c1ccc(=O)oc1 |  | 800 | 98000 | 570 | 1700
10 | C[C@]12CC[C@@H](O)C[C@@H]1CC[C@@H]1[C@@H]2CC[C@]2(C)C(=O)CC[C@@H]12 |  | 1800 | inactive | inactive | 1300
11 | C[C@]12CC[C@@H]3c4ccc(O)cc4CC[C@H]3[C@@H]1CC[C@@H]2O |  | inactive | inactive | inactive | inactive
12 | CC1CC(O[C@H]2CC[C@@]3(C)[C@H](CC[C@@H]4[C@@H]3CC[C@]3(C)[C@@H](C5=CC(=O)OC5)CC[C@]43O)C2)CC(O)C1O (some centres not stated) |  | 25 | 36 | 47 | 29
13 | C[C@H]1O[C@@H](O[C@H]2[C@@H](O)C[C@H](O[C@H]3[C@@H](O)C[C@H](O[C@H]4CC[C@@]5(C)[C@H](CC[C@@H]6[C@@H]5CC[C@]5(C)[C@@H](C7=CC(=O)OC7)[C@@H](OC=O)C[C@]65O)C4)O[C@@H]3C)O[C@@H]2C)C[C@H](O)[C@@H]1O | 35 |  |  |  | 
14 | CC(=O)O[C@]1(C(C)=O)CC[C@H]2[C@@H]3C=C(Cl)C4=CC(=O)CC[C@]4(C)[C@H]3CC[C@@]21C |  |  | No inhibition |  | No inhibition
15 | C[C@H]1O[C@@H](O[C@H]2[C@@H](O)C[C@H](O[C@H]3[C@@H](O)C[C@@H](O[C@H]4CC[C@@]5(C)[C@H](CC[C@@H]6[C@@H]5C[C@@H](O)[C@]5(C)[C@@H](C7=CC(=O)OC7)[C@@H](O)C[C@]65O)C4)O[C@@H]3C)O[C@@H]2C)C[C@H](O)[C@@H]1O | 33 |  |  |  | 
16 | C[C@]12CCC(=O)C=C1CC[C@@H]1[C@@H]2[C@@H](O)C[C@@]2(C)[C@H]1CC[C@]2(O)C(=O)CO |  | 3700 | No inhibition | 650 | 1100
17 | C[C@]12CC[C@H](O)CC1=CC[C@@H]1[C@@H]2CC[C@]2(C)C(=O)CC[C@@H]12 |  |  | No inhibition |  | 
18 | CC(=O)O[C@H]1CC[C@@]2(C)[C@H](CC[C@@H]3[C@@H]2CC[C@]2(C)[C@@H](C4=CC(=O)OC4)[C@@H](O)C[C@]32O)C1 | 74 |  |  |  | 
19 | C[C@]12CC[C@H]3[C@@H](CC[C@]4(O)C[C@@H](O)CC[C@]34CO)[C@@]1(O)CC[C@@H]2C1=CC(=O)OC1 | 4 |  |  |  | 
20 | CC(=O)O[C@H]1C[C@H](O[C@H]2CC[C@@]3(C)[C@H](CC[C@@H]4[C@@H]3C[C@@H](O)[C@]3(C)C(C5=CC(=O)OC5)CC[C@]43O)C2)O[C@H](C)[C@H]1O[C@H]1C[C@H](O)[C@H](O[C@H]2C[C@H](O)[C@H](O)[C@@H](C)O2)[C@@H](C)O1 (some centres not stated) |  | 1.5 | 0.9 | 0.9 | 1

Row | SMILES | Relative Ki [1] | IC50 ratio [2] | IC50 ratio [3] | IC50 ratio [4] | IC50 ratio [5]
21 | C[C@H]1O[C@@H](O[C@H]2[C@@H](O)C[C@H](O[C@H]3CC[C@@]4(C)[C@H](CC[C@@H]5[C@@H]4C[C@@H](O)[C@]4(C)[C@@H](C6=CC(=O)OC6)CC[C@]54O)C3)O[C@@H]2C)C[C@H](O)[C@@H]1O |  | 0.9 | 1.6 | 1.3 | 1
22 | CC(=O)O[C@@H]1C[C@H]2[C@@H](CC[C@@H]3C[C@@H](O[C@H]4C[C@H](O)[C@H](O[C@H]5C[C@H](O)[C@H](O[C@H]6C[C@H](O)[C@H](O)[C@@H](C)O6)[C@@H](C)O5)[C@@H](C)O4)CC[C@@]32C)[C@@]2(O)CCC(C3=CC(=O)OC3)[C@@]12C (some centres not stated) | 0.5 |  |  |  | 
23 | C[C@]12CCC(=O)C=C1CC[C@@H]1[C@@H]2C(=O)C[C@@]2(C)[C@H]1CC[C@]2(O)C(=O)CO |  | No inhibition | No inhibition | No inhibition | No inhibition
24 | C[C@@H]1O[C@@H](O[C@@H]2C=C3CC[C@@H]4[C@H](CC[C@]5(C)[C@@H](c6ccc(=O)oc6)CC[C@]45O)[C@@]3(C)CC2)[C@H](O)[C@H](O)[C@H]1O |  | 800 | 670 | 400 | 69
25 | C[C@]12CC[C@H](O)CC1CC[C@@H]1[C@@H]2CC[C@]2(C)[C@@H](C3=CC(=O)OC3)CC[C@]12O (single isomer, unassigned) |  | 6.7 | 4900 | 3.6 | 4.1
26 | C[C@H]1O[C@@H](O[C@H]2[C@@H](O)C[C@H](O[C@H]3[C@@H](O)C[C@H](O[C@H]4CC[C@@]5(C)[C@H](CC[C@@H]6[C@@H]5CC[C@]5(C)[C@H](C7COC(=O)C7)CC[C@]65O)C4)O[C@@H]3C)O[C@@H]2C)C[C@H](O)[C@@H]1O (some centres not stated) |  |  | 340 |  | 1800
27 | C[C@]12C[C@H](O)[C@H]3[C@@H](CCC4=CC(=O)CC[C@@]43C)[C@@H]1CC[C@@H]2C(=O)CO |  | 970 | 14000 | 420 | 390
28 | CC(=O)O[C@]1(C(C)=O)CC[C@H]2[C@@H]3CCC4=C/C(=N/OCC(=O)O)CC[C@]4(C)[C@H]3CC[C@@]21C |  |  | No inhibition |  | No inhibition
29 | C[C@H]1O[C@@H](O[C@H]2[C@@H](O)C[C@H](O[C@H]3[C@@H](O)C[C@@H](O[C@H]4CC[C@@]5(C)[C@H](CC[C@@H]6[C@@H]5C[C@@H](O)[C@]5(C)[C@@H](C7=CC(=O)OC7)CC[C@]65O)C4)O[C@@H]3C)O[C@@H]2C)C[C@H](O)[C@@H]1O | 280 |  |  |  | 
30 | CC(=O)O[C@H]1C[C@H](O[C@H]2[C@@H](O)C[C@H](O[C@H]3[C@@H](O)C[C@H](O[C@H]4CC[C@@]5(C)[C@H](CC[C@@H]6[C@@H]5CC[C@]5(C)[C@@H](C7=CC(=O)OC7)CC[C@]65O)C4)O[C@@H]3C)O[C@@H]2C)O[C@H](C)[C@H]1O |  | 20 | 3.9 | 48 | 25
31 | CC(C)CCC[C@@H](C)[C@H]1CC[C@H]2[C@@H]3CC=C4C[C@@H](O)CC[C@]4(C)[C@H]3CC[C@]12C |  | inactive | inactive | inactive | inactive
32 | C[C@]12CC[C@H]3[C@@H](CCC4=CC(=O)CC[C@@]43C)[C@@H]1CC[C@@H]2O |  | 110 | inactive | 120 | 100
33 | CO[C@@H]1[C@H](O)[C@@H](O[C@@H]2C[C@H]3CC[C@@H]4[C@H](CC[C@]5(C)[C@@H](C6=CC(=O)OC6)CC[C@]45O)[C@@]3(C)[C@H](O)C2)O[C@@H](C)[C@@H]1O | 0.5 |  |  |  | 
34 | C[C@]12CC[C@H](O)C[C@H]1CC[C@@H]1[C@@H]2CC[C@]2(C)[C@@H](c3ccc(=O)oc3)CC[C@]12O |  | 260 | 6700 | 250 | 550
35 | C[C@]12CCC(=O)C=C1CC[C@@H]1[C@@H]2[C@@H](O)C[C@]2(C=O)[C@@H](C(=O)CO)CC[C@@H]12 |  | 760 | inactive | 550 | 540
36 | C[C@]12C=CC(=O)C=C1CC[C@@H]1[C@@H]2C(=O)C[C@@]2(C)[C@H]1CC[C@]2(O)C(=O)CO |  | No inhibition | No inhibition | 3400 | No inhibition
37 | CC(=O)OCC(=O)[C@@]1(O)CC[C@H]2[C@@H]3CCC4=CC(=O)C=C[C@]4(C)[C@H]3[C@@H](O)C[C@@]21C |  |  | No inhibition |  | 12000
38 | CO[C@H]1C(O)[C@H](O[C@H]2CC[C@@]3(C)[C@H](CC[C@@H]4[C@@H]3CC[C@]3(C)[C@@H](C5=CC(=O)OC5)CC[C@]43O)C2)O[C@@H](C)[C@@H]1O[C@@H]1O[C@H](CO[C@@H]2O[C@H](CO)[C@@H](O)[C@H](O)[C@H]2O)[C@@H](O)[C@H](O)[C@H]1O (some centres not stated) |  | 18 | 97 | 7.6 | 8.6
39 | C[C@]12CC[C@H](O)C[C@H]1CC[C@@H]1[C@@H]2C[C@@H](O)[C@]2(C)[C@@H]([C@@H]3COC(=O)C3)CC[C@]12O | 300 |  |  |  | 
